# Results: patent US6737383B1, “Herbicidal oxadiazolidines” (priority 1999, dated 2004)
# Assays:
# giant foxtail = experiment: Test B pre/postemergence giant foxtail; type: in vivo, Setaria faberii
# In short: (§1)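 Herbicidal effect was estimated by eye on a ten-point control scale after plants spent twelve to sixteen days in a greenhouse following soil or foliar treatment. Foliar sprays targeted plants at one to four leaves; all doses were formulated in a non-phytotoxic solvent with surfactant.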
# corn = experiment: Test B pre/postemergence corn; type: in vivo, Zea mays
# In short: as §1
# soybean = experiment: Test B pre/postemergence soybean; type: in vivo, Glycine max
# In short: as §1
# morningglory = experiment: Test B pre/postemergence morningglory; type: in vivo, Ipomoea hederacea
# In short: as §1
# pigweed = experiment: Test B pre/postemergence pigweed; type: in vivo, Amaranthus retroflexus
# In short: as §1
# crabgrass = experiment: Test B pre/postemergence crabgrass; type: in vivo, Digitaria sanguinalis
# In short: as §1
# purple nutsedge = experiment: Test B pre/postemergence purple nutsedge; type: in vivo, Cyperus rotundus
# In short: as §1
# blackgrass = experiment: Test B pre/postemergence blackgrass; type: in vivo, Alopecurus myosuroides
# In short: as §1
# surinam grass = experiment: Test B pre/postemergence surinam grass; type: in vivo, Brachiaria decumbens
# In short: as §1
# bedstraw = experiment: Test B pre/postemergence bedstraw; type: in vivo, Galium aparine
# In short: as §1
# wild oat = experiment: Test B pre/postemergence wild oat; type: in vivo, Avena fatua
# In short: as §1
# cocklebur = experiment: Test B pre/postemergence cocklebur; type: in vivo, Xanthium strumarium
# In short: as §1
# sugar beet = experiment: Test B pre/postemergence sugar beet; type: in vivo, Beta vulgaris
# In short: as §1
# rape = experiment: Test B pre/postemergence rape; type: in vivo, Brassica napus
# In short: as §1
# velvetleaf = experiment: Test B pre/postemergence velvetleaf; type: in vivo, Abutilon theophrasti
# In short: as §1
# wheat = experiment: Test B pre/postemergence wheat; type: in vivo, Triticum aestivum
# In short: as §1
# [1] = Postemergence, Rate 62 g/ha, scale 0 to 10, 0 is no effect, 10 is complete control
# [2] = Postemergence, Rate 125 g/ha, scale of 0 to 10 where 0 is no effect and 10 is complete control
# [3] = Postemergence, Rate 500 g/ha, scale 0 (no effect) to 10 (complete control)
# [4] = Preemergence, Rate 250 g/ha, scale 0 (no effect) to 10 (complete control)
# [5] = Rate 62 g/ha, Preemergence, scale 0 to 10
# [6] = Rate 125 g/ha, Preemergence, scale 0 to 10 (0 no effect, 10 complete control)
# [7] = Rate 250 g/ha, Postemergence, scale 0 to 10, 0 is no effect, 10 is complete control
# [8] = Rate 500 g/ha, Preemergence, scale 0 to 10 (0 no effect, 10 complete control)
compound,measurement,setting,value
CC(C)N(C(=O)n1oc(=O)n(CCCCCl)c1=O)c1ccc(Cl)cc1 [Compound 791],"Plant response rating, Giant foxtail",giant foxtail; [1],0
same,Giant foxtail plant response rating,giant foxtail; [2],2
same,Giant foxtail plant response rating,giant foxtail; [3],9
same,Giant foxtail plant response rating,giant foxtail; [4],10
same,Giant foxtail plant response rating,giant foxtail; [5],10
same,Giant foxtail plant response rating,giant foxtail; [6],10
same,Giant foxtail plant response rating,giant foxtail; [7],8
same,Giant foxtail plant response rating,giant foxtail; [8],10
same,"Plant response rating, Corn",corn; [1],0
same,Corn plant response rating,corn; [2],0
same,Corn plant response rating,corn; [3],1
same,Corn plant response rating,corn; [4],0
same,Corn plant response rating,corn; [5],0
same,Corn plant response rating,corn; [6],0
same,Corn plant response rating,corn; [7],1
same,Corn plant response rating,corn; [8],0
same,"Plant response rating, Soybean",soybean; [1],4
same,Soybean plant response rating,soybean; [3],5
same,Soybean plant response rating,soybean; [5],4
same,Soybean plant response rating,soybean; [6],4
same,Soybean plant response rating,soybean; [7],5
same,Soybean plant response rating,soybean; [8],5
same,"Plant response rating, Morningglory",morningglory; [1],3
same,Morningglory plant response rating,morningglory; [2],3
same,Morningglory plant response rating,morningglory; [3],9
same,Morningglory plant response rating,morningglory; [5],0
same,Morningglory plant response rating,morningglory; [6],0
same,Morningglory plant response rating,morningglory; [7],9
same,Morningglory plant response rating,morningglory; [8],0
same,"Plant response rating, Redroot pigweed",pigweed; [1],2
same,Redroot pigweed plant response rating,pigweed; [2],6
same,Redroot pigweed plant response rating,pigweed; [3],8
same,Redroot pigweed plant response rating,pigweed; [5],0
same,Redroot pigweed plant response rating,pigweed; [6],0
same,Redroot pigweed plant response rating,pigweed; [7],6
same,"Plant response rating, Crabgrass",crabgrass; [1],1
same,Crabgrass plant response rating,crabgrass; [2],4
same,Crabgrass plant response rating,crabgrass; [3],9
same,Crabgrass plant response rating,crabgrass; [4],10
same,Crabgrass plant response rating,crabgrass; [5],6
same,Crabgrass plant response rating,crabgrass; [6],6
same,Crabgrass plant response rating,crabgrass; [7],9
same,Crabgrass plant response rating,crabgrass; [8],10
same,"Plant response rating, Nutsedge",purple nutsedge; [1],0
same,Nutsedge plant response rating,purple nutsedge; [2],0
same,Nutsedge plant response rating,purple nutsedge; [3],0
same,Nutsedge plant response rating,purple nutsedge; [5],0
same,Nutsedge plant response rating,purple nutsedge; [6],0
same,Nutsedge plant response rating,purple nutsedge; [7],0
same,Nutsedge plant response rating,purple nutsedge; [8],0
same,"Plant response rating, Blackgrass",blackgrass; [1],0
same,Blackgrass plant response rating,blackgrass; [2],2
same,Blackgrass plant response rating,blackgrass; [3],6
same,Blackgrass plant response rating,blackgrass; [4],7
same,Blackgrass plant response rating,blackgrass; [5],0
same,Blackgrass plant response rating,blackgrass; [6],0
same,Blackgrass plant response rating,blackgrass; [7],5
same,"Plant response rating, B. signalgrass",surinam grass; [1],0
same,B. signalgrass plant response rating,surinam grass; [2],0
same,B. signalgrass plant response rating,surinam grass; [4],0
same,B. signalgrass plant response rating,"surinam grass; Rate 62 g/ha, Preemergence, scale 0 (no effect) to 10 (complete control)",0
same,B. signalgrass plant response rating,surinam grass; [6],0
same,B. signalgrass plant response rating,surinam grass; [7],0
same,B. signalgrass plant response rating,"surinam grass; Rate 500 g/ha, Postemergence, scale 0 to 10, 0 is no effect, 10 is complete control",0
same,"Plant response rating, Bedstraw",bedstraw; [1],0
same,Bedstraw plant response rating,bedstraw; [3],3
same,Bedstraw plant response rating,bedstraw; [6],0
same,Bedstraw plant response rating,bedstraw; [7],3
same,"Plant response rating, Wild oats",wild oat; [1],0
same,Wild oats plant response rating,wild oat; [3],0
same,Wild oats plant response rating,wild oat; [5],0
same,Wild oats plant response rating,wild oat; [6],0
same,Wild oats plant response rating,wild oat; [7],0
same,"Plant response rating, Cocklebur",cocklebur; [1],0
same,Cocklebur plant response rating,cocklebur; [2],0
same,Cocklebur plant response rating,cocklebur; [3],5
same,Cocklebur plant response rating,cocklebur; [4],0
same,Cocklebur plant response rating,cocklebur; [5],0
same,Cocklebur plant response rating,cocklebur; [6],0
same,Cocklebur plant response rating,cocklebur; [7],0
same,Cocklebur plant response rating,cocklebur; [8],0
same,"Plant response rating, Sugarbeets",sugar beet; [1],0
same,Sugarbeets plant response rating,sugar beet; [3],5
same,Sugarbeets plant response rating,sugar beet; [5],0
same,Sugarbeets plant response rating,sugar beet; [6],0
same,Sugarbeets plant response rating,sugar beet; [7],2
same,"Plant response rating, Rape",rape; [1],3
same,Rape plant response rating,rape; [2],3
same,Rape plant response rating,rape; [3],6
same,Rape plant response rating,rape; [5],0
same,Rape plant response rating,rape; [6],0
same,Rape plant response rating,rape; [7],5
same,"Plant response rating, Velvetleaf",velvetleaf; [1],2
same,Velvetleaf plant response rating,velvetleaf; [3],6
same,Velvetleaf plant response rating,velvetleaf; [5],0
same,Velvetleaf plant response rating,velvetleaf; [6],0
same,Velvetleaf plant response rating,velvetleaf; [7],6
same,Velvetleaf plant response rating,velvetleaf; [8],0
same,"Plant response rating, Wheat",wheat; [1],0
same,Wheat plant response rating,wheat; [3],0
same,Wheat plant response rating,wheat; [5],0
same,Wheat plant response rating,wheat; [6],0
same,Wheat plant response rating,wheat; [7],0
